Test results as given in patent US20240262842A1, “SMALL MOLECULE INHIBITORS OF KRAS G12C MUTANT” (Merck Sharp & Dohme LLC, priority 2021, published 2024).
Like-named read-outs stand apart in the source and are kept apart here.

Tests used:
[1] = target: T1, interaction between GMPPNP-bound recombinant K-Ras4B G12C mutant protein and cRAF RAS-binding domain (cRAF-RBD) (Homo sapiens, UniProt P01116, G12C); experiment: Inhibitory activity on interaction between KRAS G12C and cRAF (Alpha technology)
T1 construct: His-tag (N)
Protocol: Interaction between recombinant K-Ras4B G12C mutant protein (amino acids 1-169, SEQ ID NO:2) and cRAF RAS-binding domain (cRAF-RBD, amino acids 50-132, Jena Biosciences GmbH) was measured using Alpha technology (PerkinElmer Inc.).
Recombinant KRAS G12C protein with an N-terminal His-tag was expressed in E. coli and purified by affinity chromatography. To prepare GTP-bound form and GDP-bound form of KRAS G12C protein, 50 μM KRAS G12C protein was incubated with 1 mM GMPPNP (Guanosine-5′-[(β,γ)-imido]triphosphate, Tetralithium salt) (Jena Bioscience GmbH) and 1 mM GDP, respectively, in a loading buffer (20 mM Tris-HCl (pH 7.5), 50 mM NaCl, 1 mM DTT and 2.5 mM EDTA) for 1 hour on ice. After the incubation, MgCl2 was added to a final concentration of 10 mM, followed by incubation at room temperature for 30 minutes. The mixture was allowed to pass through a NAP-5 column to remove free nucleotides and purified, and the resultant nucleotide-bound KRAS G12C protein was used for compound evaluation.
For the measurement of the inhibitory activity of compounds on interaction between KRAS G12C and cRAF-RBD, GMPPNP-bound KRAS G12C protein was incubated with various concentrations of compound in a reaction buffer (20 mM Tris-HCl (pH 7.5), 100 mM NaCl, 1 mM MgCl2, 1 mM TCEP, 0.1% Tween 20) at 25° C. for 1 hour. After the incubation, recombinant cRAF-RBD and Alpha detection reagents were added and incubated at room temperature for 1.5 hours for binding. Interaction of KRAS G12C and cRAF-RBD was monitored by measuring Alpha signal. Inhibition % was calculated using the signal from the reaction without test compound (DMSO control) as 0% inhibition and the signal from the reaction using GDP-bound KRAS G12C in place of GMPPNP-bound KRAS G12C as 100% inhibition. IC50 values were calculated from dose titration curve using curve fitting by XLfit software (IDBS).

[2] = system: MIA PaCa-2 cells; experiment: Growth inhibition activity on KRAS-G12C mutant cell line (CellTiter-Glo 3D); type: cell-based, human; conditions: MIA PaCa-2, 3-day culture with compound
Protocol: MIA PaCa-2 cells (given by Sumitomo Dainippon Pharma Co., Ltd.), which are a KRAS-G12C mutant human pancreas cancer cell line, were suspended in a 10% fetal bovine serum-containing RPMI1640 medium (manufactured by Fujifilm Wako Pure Chemical Corporation). The cell suspension was seeded into each well of a 384-well U bottom microplate and cultured in an incubator containing 5% CO2 gas at 37° C. for 1 day. The compounds obtained in the “Preparation of Compounds” section were used as test compounds and were dissolved in DMSO, respectively, and each test compound was diluted with DMSO to give a concentration 500 times the final concentration. The resultant solution of the test compound in DMSO was diluted with the medium used for suspending cells and added to each well of the cell-culture plate to give a DMSO final concentration of 0.2%, followed by culture in an incubator containing 5% CO2 gas at 37° C. for another 3 days. The cell count after 3-day culture in the presence of the test compound was measured using CellTiter-Glo 3D Reagent (manufactured by Promega Corporation). All wells were added with CellTiter-Glo 3D Reagent and mixed for 10 minutes. 30 minutes after mixing, luminescence was measured by a plate reader. The growth inhibition rate was calculated from the following equation, and the concentration of the test compound at which 50% inhibition was achieved (IC50 (nM)) was determined.
[formula] • T: the emission intensity in a well into which a test compound was added. • C: the emission intensity in a well into which a test compound was not added.

[3] = GMPPNP-bound KRAS G12C incubated with compound 25° C. 1 hour, Table 2-1, read-out: IC50
[4] = Homo sapiens, MIA PaCa-2, 72 h, Table 3-1
[5] = IC50, GMPPNP-bound KRAS G12C incubated with compound 25° C. 1 hour, Table 2-1
[6] = IC50, GMPPNP-bound KRAS G12C incubated with compound 25° C. 1 hour, Table 2
[7] = GMPPNP-bound KRAS G12C incubated with compound 25° C. 1 hour, Table 2, read-out: IC50

T1 sequence (P01116 with tags, fused parts or gaps isoform P01116-2 G12C): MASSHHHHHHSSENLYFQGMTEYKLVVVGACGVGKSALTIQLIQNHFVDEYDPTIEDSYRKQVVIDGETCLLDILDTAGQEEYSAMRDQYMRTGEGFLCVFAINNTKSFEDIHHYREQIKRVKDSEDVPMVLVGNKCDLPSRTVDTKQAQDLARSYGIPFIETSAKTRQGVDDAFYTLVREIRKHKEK

Q: CN1CCc2cc(C(=O)c3cc(F)c(NC(=O)/C=C/CN[C@H]4CCOC4)c(F)c3)n3cccc(c23)-c2c(C(F)(F)F)cc3[nH]cnc3c21 (atropisomer, axis not shown) [Example 218] was tested. Which IC50 [1, 3] did it give?
A: 27 nM

Q: What about the IC50 [2, 4] of the same compound?
A: 14.2 nM

Q: Which results are given for CN1CCc2cc(C(=O)c3cc(F)c(NC(=O)/C=C/CNC4(C)CC4)c(F)c3)n3cccc(c23)-c2c(C(F)(F)F)cc3[nH]cnc3c21 (atropisomer, axis not shown) [Example 239, (E)-N-(2,6-difluoro-4-(12-methyl-7-(trifluorometh-yl)-9,12,13,14-tetrahydro-imidazo[4″,5″:5′,6′]benzo-[1′,2′:2,3]azocino[4,5,6-hi]indolizine-2-carbonyl)-phenyl)-4-((1-methyl-cyclopropyl)amino)but-2-enamide]?
A: IC50 [1, 3]: 18.2 nM; IC50 [2, 4]: 9.69 nM

Q: With Cc1cc2c(nc(C)n2C)c2c1-c1cccc3c(C(=O)c4cc(F)c(NC(=O)/C=C/CN[C@H]5C[C@@H]6CC[C@H]5O6)c(F)c4)cn(c13)CCN2C (racemic) [Example 135] as the compound, how does the IC50 [1, 5] read?
A: 11 nM

Q: What about the IC50 [2, 4] of the same compound?
A: 28.9 nM

Q: Cc1cc2c(nc(C)n2C)c2c1-c1cccc3c(C(=O)c4cc(F)c(NC(=O)/C=C/CN5[C@@H]6CC[C@H]5[C@@H](O)C6)c(F)c4)cn(c13)CCN2C (racemic) [Example 142] was tested. Which IC50 [1, 5] did it give?
A: 28.1 nM

Q: What about the IC50 [2, 4] of the same compound?
A: 85.5 nM

Q: Cc1cc2c(nc(C)n2C)c2c1-c1cccc3c(C(=O)c4cc(F)c(NC(=O)/C=C/CN5[C@@H]6CC[C@H]5[C@H](O)C6)c(F)c4)cn(c13)CCN2C (racemic) [Example 144] was tested. Which IC50 [1, 5] did it give?
A: 22.4 nM

Q: And the IC50 [2, 4]?
A: 30.2 nM

Q: Cn1cnc2c3c(c(C(F)(F)F)cc21)-c1cccn2c(C(=O)c4cc(F)c(NC(=O)/C=C/CN5CC[C@H]6CC[C@H](O)[C@H]65)c(F)c4)cc(c12)CCO3 (racemic) [Example 163] was tested. Which IC50 [1, 3] did it give?
A: 33.5 nM

Q: What about the IC50 [2, 4] of the same compound?
A: 42.7 nM

Q: For Cn1cnc2c3c(c(C(F)(F)F)cc21)-c1cccn2c(C(=O)c4cc(F)c(NC(=O)/C=C/CN5CC[C@H]6CC[C@@H](O)[C@H]65)c(F)c4)cc(c12)CCO3 (racemic) [Example 164], which IC50 [1, 3] is on record?
A: 21.5 nM

Q: And the IC50 [2, 4]?
A: 13.7 nM

Q: How did the IC50 [1, 3] turn out when Cn1cnc2c3c(c(C(F)(F)F)cc21)-c1cccn2c(C(=O)c4cc(F)c(NC(=O)/C=C/CN5[C@@H]6CC[C@H]5[C@@H](O)C6)c(F)c4)cc(c12)CCO3 (racemic) [Example 172] was run?
A: 10.4 nM

Q: And the IC50 [2, 4]?
A: 16.2 nM

Q: Which IC50 [1, 3] does the source give for Cn1cnc2c3c(c(C(F)(F)F)cc21)-c1cccn2c(C(=O)c4cc(F)c(NC(=O)/C=C/CN5[C@@H]6CC[C@H]5[C@H](O)C6)c(F)c4)cc(c12)CCO3 (racemic) [Example 173] here?
A: 7.02 nM

Q: And the IC50 [2, 4]?
A: 10.6 nM

Q: What does the source list for Cn1cnc2c3c(c(C(F)(F)F)cc21)-c1cccn2c(C(=O)c4cc(F)c(NC(=O)/C=C/CN5C[C@@H]6COC[C@H]6C5)c(F)c4)cc(c12)CCO3 (racemic) [Example 248]?
A: IC50 [1, 3]: 18 nM; IC50 [2, 4]: 21.8 nM

Q: What does the source list for CO[C@H]1CC[C@H](NC/C=C/C(=O)Nc2c(F)cc(C(=O)c3cn4c5c(cccc35)-c3c(Cl)cccc3OCC4)cc2F)CC1 (single isomer, unassigned) [Example 1-1]?
A: IC50 [1, 6]: > 6700 nM; IC50 ([2]; Table 3): 7700 nM

Q: What does the source list for CO[C@H]1CC[C@H](NC/C=C/C(=O)Nc2c(F)cc(C(=O)c3cn4c5c(cccc35)-c3c(Cl)cccc3OCC4)cc2F)CC1 (single isomer, unassigned) [Example 1-2]?
A: IC50 [1, 6]: 180 nM; IC50 ([2]; Table 3): 160 nM

Q: For CC(C)(C)NC/C=C/C(=O)Nc1c(F)cc(C(=O)c2cn3c4c(cccc24)-c2c(Cl)cccc2OCCC3)cc1F (single isomer, unassigned) [Example 2-1, (E)-4-(tert-butylamino)-N-(4-(11-chloro-5,6-dihydro-4H-benzo[8,9][1,5]oxazonino[7,6,5-hi]indole-1-carbonyl)-2,6-difluorophenyl)but-2-enamide], which IC50 [1, 6] is on record?
A: > 6700 nM

Q: And the IC50 ([2]; Table 3)?
A: 3100 nM

Q: With CC(C)(C)NC/C=C/C(=O)Nc1c(F)cc(C(=O)c2cn3c4c(cccc24)-c2c(Cl)cccc2OCCC3)cc1F (single isomer, unassigned) [Example 2-2, (E)-4-(tert-butylamino)-N-(4-(11-chloro-5,6-dihydro-4H-benzo[8,9][1,5]oxazonino[7,6,5-hi]indole-1-carbonyl)-2,6-difluorophenyl)but-2-enamide] as the compound, how does the IC50 [1, 6] read?
A: 500 nM

Q: And the IC50 ([2]; Table 3)?
A: 390 nM

Q: What does the source list for CO[C@H]1CC[C@H](NC/C=C/C(=O)Nc2c(F)cc(C(=O)c3cn4c5c(cccc35)-c3c(Cl)cccc3OCCC4)cc2F)CC1 (single isomer, unassigned) [Example 4-1, (E)-N-(4-(11-chloro-5,6-dihydro-4H-benzo[8,9][1,5]oxazonino[7,6,5-hi]indole-1-carbonyl)-2,6-difluorophenyl)-4-(((1,4r)-4-methoxycyclohexyl)amino)but-2-enamide]?
A: IC50 [1, 6]: > 6700 nM; IC50 ([2]; Table 3): 3600 nM

Q: What does the source list for CO[C@H]1CC[C@H](NC/C=C/C(=O)Nc2c(F)cc(C(=O)c3cn4c5c(cccc35)-c3c(Cl)cccc3OCCC4)cc2F)CC1 (single isomer, unassigned) [Example 4-2, (E)-N-(4-(11-chloro-5,6-dihydro-4H-benzo[8,9][1,5]oxazonino[7,6,5-hi]indole-1-carbonyl)-2,6-difluorophenyl)-4-(((1,4r)-4-methoxycyclohexyl)amino)but-2-enamide]?
A: IC50 [1, 6]: 290 nM; IC50 ([2]; Table 3): 260 nM

Q: How did the IC50 [1, 6] turn out when CO[C@H]1CC[C@H](NC/C=C/C(=O)Nc2c(F)cc(C(=O)c3cn4c5c(cccc35)-c3c(cc(N5CCCC5=O)cc3C(F)(F)F)OCC4)cc2F)CC1 (single isomer, unassigned) [Example 5-1, (E)-N-(2,6-difluoro-4-(8-(2-oxopyrrolidin-1-yl)-10-(trifluoromethyl)-4,5-dihydrobenzo[7,8][1.4]oxazocino[6,5,4-hi]indole-1-carbonyl)phenyl)-4-(((1r,4t)-4-methoxycyclohexyl)amino)but-2-enamide] was run?
A: 53 nM

Q: And the IC50 ([2]; Table 3)?
A: 14 nM

Q: What does the source list for CO[C@H]1CC[C@H](NC/C=C/C(=O)Nc2c(F)cc(C(=O)c3cn4c5c(cccc35)-c3c(cc(N5CCCC5=O)cc3C(F)(F)F)OCC4)cc2F)CC1 (single isomer, unassigned) [Example 5-2, (E)-N-(2,6-difluoro-4-(8-(2-oxopyrrolidin-1-yl)-10-(trifluoromethyl)-4,5-dihydrobenzo[7,8][1.4]oxazocino[6,5,4-hi]indole-1-carbonyl)phenyl)-4-(((1r,4t)-4-methoxycyclohexyl)amino)but-2-enamide]?
A: IC50 [1, 6]: > 6700 nM; IC50 ([2]; Table 3): 1800 nM

Q: For C=C1Cc2cc(C(=O)c3cc(F)c(NC(=O)/C=C/CN[C@H]4CC[C@H](OC)CC4)c(F)c3)n3cccc(c23)-c2c(C)cc3c(nc(C)n3C)c21 [Example 48, (E)-N-(2,6-difluoro-4-(2,3,5-trimethyl-13-methylene-12,13-dihydro-3H-imidazo[4″,5″:5′,6′]benzo[1′,2′:6,7]cyclohepta[1,2,3-hi]indolizine-10-carbonyl)phenyl)-4-(((1r,4r)-4-methoxycyclohexyl)amino)but-2-enamide], which IC50 [1, 7] is on record?
A: 93 nM

Q: Which IC50 [1, 7] does the source give for Cc1nc2c3c(c(C(F)(F)F)cc2n1C)-c1cccn2c(C(=O)c4cc(F)c(NC(=O)/C=C/CNC5(CF)COC5)c(F)c4)cc(c12)CCO3 [Example 50, (E)-N-(4-(9,10-dimethyl-7-(trifluoromethyl)-13,14-dihydro-9H-imidazo[4″,5″:5′,6′]benzo[1′,2′:2,3]oxocino[4,5,6-hi]indolizine-2-carbonyl)-2,6-difluorophenyl)-4-((3-(fluoromethyl)oxetan-3-yl)amino)but-2-enamide] here?
A: 780 nM
